We go through one compound from ChEMBL document CHEMBL5678818, “Discovery of potent SOS1 inhibitors that block RAS activation via disruption of the RAS-SOS1 interaction” (Proc Natl Acad Sci U S A, 2019).

The term inhibition denotes the relative decrease from the control value, in per cent.

For one test, the species on record is Homo sapiens. The test can be described thus: Inhibition of N-terminal GST-tagged recombinant human SOS1 L901K mutant (564 to 1049 residues) expressed in Escherichia coli assessed as reduction in KRAS G12C mutant activation at 10 uM by HTRF analysis relative to control. A general note: Time-resolved FRET reads energy transfer from a long-lived donor to a nearby acceptor.

For test [1], the target named is RAC-gamma serine/threonine-protein kinase (Homo sapiens) (UniProt Q9Y243). The experiment in a line: Inhibition of AKT3 (unknown origin) assessed as residual activity at 100 nM by KINOMEscan analysis relative to control.
In test [2] the target is T1, Calcium/calmodulin-dependent protein kinase type IV (Homo sapiens) (UniProt Q16566).
T1 sequence (whole entry): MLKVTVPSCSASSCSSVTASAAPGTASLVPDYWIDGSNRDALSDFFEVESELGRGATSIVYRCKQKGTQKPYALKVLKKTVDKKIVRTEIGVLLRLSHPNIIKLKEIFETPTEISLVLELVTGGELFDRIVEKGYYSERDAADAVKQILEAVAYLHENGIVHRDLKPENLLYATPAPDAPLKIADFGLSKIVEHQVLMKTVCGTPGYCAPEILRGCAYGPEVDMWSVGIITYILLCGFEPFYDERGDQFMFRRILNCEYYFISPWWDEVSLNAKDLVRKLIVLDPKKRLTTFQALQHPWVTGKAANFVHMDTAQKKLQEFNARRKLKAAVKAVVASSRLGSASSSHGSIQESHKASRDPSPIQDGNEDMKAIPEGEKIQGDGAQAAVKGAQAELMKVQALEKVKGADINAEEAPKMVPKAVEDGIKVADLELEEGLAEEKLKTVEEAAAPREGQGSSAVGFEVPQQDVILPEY
The test can be described thus: Inhibition of CAMK4 (unknown origin) assessed as residual activity at 100 nM by KINOMEscan analysis relative to control.

The target in test [3] is T2, Serine/threonine-protein kinase LATS1 (Homo sapiens) (UniProt O95835).
T2 sequence (whole entry): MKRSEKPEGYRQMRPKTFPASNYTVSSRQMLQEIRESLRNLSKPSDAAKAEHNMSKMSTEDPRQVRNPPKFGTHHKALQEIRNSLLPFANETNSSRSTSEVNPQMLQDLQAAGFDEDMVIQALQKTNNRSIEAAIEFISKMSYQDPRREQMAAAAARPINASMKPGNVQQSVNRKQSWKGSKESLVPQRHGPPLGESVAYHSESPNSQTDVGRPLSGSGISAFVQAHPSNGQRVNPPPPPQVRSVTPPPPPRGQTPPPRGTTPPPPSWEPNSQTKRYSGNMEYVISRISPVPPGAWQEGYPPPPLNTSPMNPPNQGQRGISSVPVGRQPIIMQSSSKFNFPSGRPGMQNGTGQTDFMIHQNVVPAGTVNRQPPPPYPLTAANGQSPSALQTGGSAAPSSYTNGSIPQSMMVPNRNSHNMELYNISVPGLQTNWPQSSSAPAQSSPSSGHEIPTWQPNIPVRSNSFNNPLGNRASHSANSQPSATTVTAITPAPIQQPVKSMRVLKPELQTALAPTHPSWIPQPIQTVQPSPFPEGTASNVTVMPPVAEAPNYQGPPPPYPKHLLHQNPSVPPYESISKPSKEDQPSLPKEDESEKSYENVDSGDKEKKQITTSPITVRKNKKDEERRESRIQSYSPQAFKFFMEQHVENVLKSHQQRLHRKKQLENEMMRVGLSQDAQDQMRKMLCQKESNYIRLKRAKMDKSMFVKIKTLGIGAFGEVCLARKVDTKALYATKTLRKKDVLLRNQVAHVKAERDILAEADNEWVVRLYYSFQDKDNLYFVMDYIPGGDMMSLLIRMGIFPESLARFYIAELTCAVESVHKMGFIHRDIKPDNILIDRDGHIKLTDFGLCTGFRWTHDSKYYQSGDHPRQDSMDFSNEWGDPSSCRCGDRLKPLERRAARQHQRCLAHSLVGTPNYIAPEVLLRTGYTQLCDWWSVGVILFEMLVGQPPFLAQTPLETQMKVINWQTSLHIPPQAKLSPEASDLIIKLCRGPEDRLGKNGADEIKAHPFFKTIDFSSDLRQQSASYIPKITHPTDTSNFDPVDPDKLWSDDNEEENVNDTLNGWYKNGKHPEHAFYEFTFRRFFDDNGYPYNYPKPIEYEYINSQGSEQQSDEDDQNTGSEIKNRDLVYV
The experiment in a line: Inhibition of LATS1 (unknown origin) assessed as residual activity at 100 nM by KINOMEscan analysis relative to control.

Test [4] deals with T3, MAP/microtubule affinity-regulating kinase 4 (Homo sapiens) (UniProt Q96L34).
T3 sequence (whole entry): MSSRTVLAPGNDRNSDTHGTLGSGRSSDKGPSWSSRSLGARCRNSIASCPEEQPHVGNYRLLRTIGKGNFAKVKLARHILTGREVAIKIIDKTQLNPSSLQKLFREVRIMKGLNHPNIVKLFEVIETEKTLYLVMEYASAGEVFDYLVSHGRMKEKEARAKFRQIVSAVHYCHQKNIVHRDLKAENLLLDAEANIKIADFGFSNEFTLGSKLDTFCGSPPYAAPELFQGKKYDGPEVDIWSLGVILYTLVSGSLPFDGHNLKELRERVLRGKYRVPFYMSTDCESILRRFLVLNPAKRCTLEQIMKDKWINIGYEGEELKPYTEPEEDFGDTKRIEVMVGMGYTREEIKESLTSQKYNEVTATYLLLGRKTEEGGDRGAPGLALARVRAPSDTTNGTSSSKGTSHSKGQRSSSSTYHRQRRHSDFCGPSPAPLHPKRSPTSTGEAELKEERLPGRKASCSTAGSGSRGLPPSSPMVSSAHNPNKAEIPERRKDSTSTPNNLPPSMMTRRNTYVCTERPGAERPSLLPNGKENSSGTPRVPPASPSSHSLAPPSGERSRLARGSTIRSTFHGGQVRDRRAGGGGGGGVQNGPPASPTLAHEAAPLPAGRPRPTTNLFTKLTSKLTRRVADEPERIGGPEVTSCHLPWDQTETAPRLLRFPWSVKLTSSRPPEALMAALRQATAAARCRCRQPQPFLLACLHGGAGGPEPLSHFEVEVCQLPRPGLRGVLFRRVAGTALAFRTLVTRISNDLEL
The experiment in a line: Inhibition of MARK4 (unknown origin) assessed as residual activity at 100 nM by KINOMEscan analysis relative to control.

Test [5] addresses Tyrosine-protein kinase Yes (Homo sapiens) (UniProt P07947). The experiment in a line: Inhibition of YES (unknown origin) assessed as residual activity at 100 nM by KINOMEscan analysis relative to control.

Sequence of RAC-gamma serine/threonine-protein kinase (Homo sapiens) (Q9Y243 whole entry): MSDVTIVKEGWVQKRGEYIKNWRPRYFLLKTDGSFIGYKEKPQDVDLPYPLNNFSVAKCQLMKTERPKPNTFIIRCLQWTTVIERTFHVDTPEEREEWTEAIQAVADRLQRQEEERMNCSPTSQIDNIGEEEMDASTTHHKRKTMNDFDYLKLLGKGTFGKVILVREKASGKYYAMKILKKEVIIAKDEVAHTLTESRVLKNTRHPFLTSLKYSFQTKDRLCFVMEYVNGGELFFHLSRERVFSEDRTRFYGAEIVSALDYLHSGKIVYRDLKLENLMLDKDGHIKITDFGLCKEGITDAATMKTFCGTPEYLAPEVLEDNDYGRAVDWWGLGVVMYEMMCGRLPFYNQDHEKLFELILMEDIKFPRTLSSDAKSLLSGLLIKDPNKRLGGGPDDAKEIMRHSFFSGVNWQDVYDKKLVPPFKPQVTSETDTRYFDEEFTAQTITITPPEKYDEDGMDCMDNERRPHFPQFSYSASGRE
Sequence of Tyrosine-protein kinase Yes (Homo sapiens) (P07947 2-543 limits assumed): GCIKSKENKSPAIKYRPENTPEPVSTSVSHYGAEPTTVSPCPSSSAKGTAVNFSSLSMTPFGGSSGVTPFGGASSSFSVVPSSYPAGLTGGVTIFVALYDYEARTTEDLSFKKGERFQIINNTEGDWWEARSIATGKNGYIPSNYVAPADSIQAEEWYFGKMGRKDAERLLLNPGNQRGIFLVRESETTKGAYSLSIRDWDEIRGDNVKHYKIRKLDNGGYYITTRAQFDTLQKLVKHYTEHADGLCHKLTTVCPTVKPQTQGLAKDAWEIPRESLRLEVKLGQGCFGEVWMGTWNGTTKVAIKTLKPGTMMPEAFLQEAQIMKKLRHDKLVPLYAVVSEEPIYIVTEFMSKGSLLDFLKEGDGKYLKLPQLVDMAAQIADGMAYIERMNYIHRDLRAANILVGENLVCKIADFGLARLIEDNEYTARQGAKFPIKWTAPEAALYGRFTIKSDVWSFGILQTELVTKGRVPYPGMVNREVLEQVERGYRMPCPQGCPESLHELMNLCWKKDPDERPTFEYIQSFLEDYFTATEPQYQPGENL

In the case of `COc1cc2ncnc(N[C@H](C)c3cccc4ccccc34)c2cc1OC`, the inhibition in the test listed under Homo sapiens is 38%. Moreover, the Activity in test [1] was 94%; in test [2] it was 100%; in test [3] it was 97%; in test [4], 97%; in test [5] it was 100%.
